Measurements published in paper PMC11726150, “Pre‐ADMET studies of 5‐(3′,4′‐dihydroxyphenyl)‐γ‐valerolactone, the bioactive intestinal metabolite of proanthocyanidins” (Archiv Der Pharmazie, 2024).
“Also recorded” adds a separate entry of the source.

What was measured:
[1] = biological target: T1, PXR (Homo sapiens, UniProt O75469); type: cell-based; set-up: expressed in transfected cells; host or cells: LS174T cells, transient electroporation; conditions: LS174T cells, all concentrations tested (1.5–50 μM), 24 h
T1 sequence (O75469 1-434): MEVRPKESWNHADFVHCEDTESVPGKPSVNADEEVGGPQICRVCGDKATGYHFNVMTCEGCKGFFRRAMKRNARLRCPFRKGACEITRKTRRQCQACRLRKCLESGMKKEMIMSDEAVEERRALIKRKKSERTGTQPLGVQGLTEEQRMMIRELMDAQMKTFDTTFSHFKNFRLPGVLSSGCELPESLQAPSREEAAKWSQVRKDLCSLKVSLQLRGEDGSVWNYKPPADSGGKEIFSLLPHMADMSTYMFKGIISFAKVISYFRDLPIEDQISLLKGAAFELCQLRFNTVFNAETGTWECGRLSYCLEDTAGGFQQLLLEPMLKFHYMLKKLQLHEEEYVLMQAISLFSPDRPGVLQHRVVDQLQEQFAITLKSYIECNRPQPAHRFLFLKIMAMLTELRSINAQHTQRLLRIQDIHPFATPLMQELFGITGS
Procedure: The PXR activation potential of VL was determined in transiently transfected HepG2 and LS174T cells as described earlier.^[ [50] ^] In brief, 24‐h‐old cells having 70%−80% confluency were trypsinized and transfected with pSG5‐hPXR (25 μg) and PCR‐5 (25 μg) plasmid DNA by electroporation at 180 V (1 pulse for 70 ms). Cells were incubated at room temperature for 8 min and floating dead cells were carefully removed. Cells were seeded in 96‐well plates at a density of 50,000 cells/well. […] Following 24 h of incubation, the culture medium was aspirated and 40 μL of luciferase reagent (Promega Corporation) was added to each well. Luminescence was measured using a Spectramax M5 plate reader (Molecular Devices) and the fold increase in luciferase activity among sample‐treated cells was calculated in comparison with the vehicle‐treated (DMSO) cells.

[2] = Metabolic stability assay with human liver microsomes; type: in vitro ADME
Procedure: HLMs and S9 fractions were used to determine, respectively, phases I and II metabolism of VL. A mixture of the activating cofactors (NADP^+ and UDPGA) and enzymes (G6PO4 and G6PDH) were used to stimulate the metabolism; in the microsome assay UDPGA was not needed. The final concentrations of cofactors NADPH and UDPGA were 1 mM each, while for the enzymes G6PO4 and G6PDH were 10 mM and 2 U/mL, respectively. The phosphate buffer was prepared as a 100 mM solution, pH 7.4, containing 10 mM magnesium chloride in deionized water. Testosterone and 7‐hydroxycoumarin were used as positive controls for phases I and II metabolism, and stock reference solutions of controls and VL were prepared, respectively, at 5 mM and 10 mM concentration in DMSO, and then diluted to a final test concentration of 10 µM. S9 fraction or microsome, final concentration 1 mg/mL, were preincubated with a test compound for 5 min at 37°C in the phosphate buffer, pH 7.4, and then the reactions were initiated by adding the cofactor mixture. A negative control sample was prepared replacing the reaction enzymes with water in the presence of a reaction mixture and test compound VL. […] T ½ was calculated using the interpolating point method using the nonlinear fit option of GraphPad Prism 8, while intrinsic clearance CL'int (mL/min/kg) was calculated as written in Equation (4) and as reported previously:^[ [23] ^] […]

[3] = MTT cell viability assay; type: cell-based, human; conditions: human, Caco2 cells; Caco2, 1.5–50 µM, 6 h exposure; read-out: cells remaining viable
Procedure: (§1) The effect of test samples on cell viability was measured using an MTT assay. Briefly, exponentially growing 2 × 10^4 cells/200 μL were seeded in 96‐well plates and allowed to grow until reaching their differentiation state. Cells were treated with different concentrations of VL (50–1.6 µM) and positive control camptothecin (30–1 μM) serially diluted in serum‐free medium. After incubation, 10 μL of MTT dye (5 mg/mL stock in PBS) was added to each well, and plates were additionally incubated for 4 h. Further, media were aspirated, and cells were washed with 100 μL of phosphate buffer saline. The formazan blue crystals formed by viable cells were dissolved in 150 μL of DMSO, and the absorbance was measured at 580 nm on a Bio‐Tek, Synergy HT Multi‐Mode, plate reader. The % decrease in viability of sample‐treated cells was calculated compared with vehicle‐treated cells.^[ [46] ^]

[4] = test system: HepG2 cells; assay: MTT cell viability assay; type: cell-based, human; conditions: HepG2, 1.5–50 µM, up to 24 and 48 h
Procedure: as §1

[5] = test system: LS174T cells; assay: MTT cell viability assay; type: cell-based, human; conditions: 1.5–50 µM, up to 24 and 48 h
Procedure: as §1

[6] = test system: Caco2 cells; assay: MTT cell viability assay; type: cell-based, human; conditions: Caco2, 1.5–50 µM, up to 24 and 48 h
Procedure: as §1

With `O=C1CCC(Cc2ccc(O)c(O)c2)O1` (stereo not shown) [VL, 5‐(3′,4′‐dihydroxyphenyl)‐γ‐valerolactone] the “PXR transcriptional activity, fold increase vs vehicle” value [1] was “does not increase the PXR activity; also recorded: < twofold”, the “half‐life t ½” value ([2]; HLM 1 mg/mL, 10 µM) was 23.084 min and the half-life at 10 µM ([2]; human, liver microsomes, pH 7.4, HLM 1 mg/mL, read-out: half‐life t ½) was 23.1 min. The viability at 6 h [3] was over 90%, the “effect on cell viability” value [4] was “no significant effect” and the “effect on cell viability” value [5] was “no significant effect”. For the same molecule, the “effect on cell viability” value [6] was “no significant effect”.
